Values quoted from earlier work as cited in paper PMC4366302 (Organic & biomolecular chemistry, 2015).

Details: known inherent solubilities

Row | S0 (inherent solubility of drug) [µM] | Compound
1 | 4.5 ± 0.90 | O=C(NC1=CC(=O)[C@H]2O[C@H]2[C@H]1O)c1cc2ccccc2[nH]c1=O [PBS-1086]
2 | 63 ± 3.5 | O=C1Cc2cc(CCN3CCN(c4nsc5ccccc45)CC3)c(Cl)cc2N1 [Ziprasidone, ziprasidone]
